Legend:
TLR2/6 = TLR2/6 (Homo sapiens, UniProt O60603+Q9Y2C9); assay: Luciferase reporter assay in HEK-293+TLR2/6 cells; assay type: cell-based; conditions: corrected on renilla activity; ratios compared to non-stimulated cells; cells lysed 24 h after ligand
Description: (§1) Stable immortalized HEK-293+TLR2/6 and HEK-293+TLR4/MD2/CD14 (Invitrogen) cells were seeded in 6-well plates in 1× DMEM supplemented with 5% FBS, 1 mM glutamine, amino acids not essential 1× and pyruvate 0.01%. At 80% confluency, pcon3A-luciferase (pcon3A motif responses to KNFB activation) and TK-renilla vectors (99:1 ratio, respectively) were transfected with metafectene. The transfection medium was changed after 24 hours, and the cells were seeded in 96-well plates. Ligands were added 24 hours later at 80% confluence and cells were lysed after 24 h. Luciferase activity was read using the TwinLite kit (Perkin Elmer) on a Fluo Star Optima (BMG) plate reader and corrected based on renilla activity (three replicates per condition). All ratios were compared to the control condition (non-stimulated cells). We used Pam3CSK4, FSL-1, and Escherichia coli LPS as control ligands with agonistic effect mediated by TLR2/1, TLR2/6, and TLR4 receptors, respectively. TNF alpha was used as a positive control in all cell lines.

TLR4/MD2/CD14 = TLR4/MD2/CD14 (Homo sapiens, UniProt O00206+Q9Y6Y9); assay: Luciferase reporter assay in HEK-293+TLR4/MD2/CD14 cells; assay type: cell-based; conditions: corrected on renilla activity; ratios compared to non-stimulated cells; cells lysed 24 h after ligand
Description: as §1

Chain of TLR4/MD2/CD14 (Q9Y6Y9 19-160): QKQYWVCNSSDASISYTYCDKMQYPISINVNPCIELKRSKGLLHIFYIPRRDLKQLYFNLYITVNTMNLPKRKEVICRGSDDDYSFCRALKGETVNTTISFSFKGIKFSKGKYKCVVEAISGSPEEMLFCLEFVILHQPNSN
Chain of TLR4/MD2/CD14 (O00206 24-839): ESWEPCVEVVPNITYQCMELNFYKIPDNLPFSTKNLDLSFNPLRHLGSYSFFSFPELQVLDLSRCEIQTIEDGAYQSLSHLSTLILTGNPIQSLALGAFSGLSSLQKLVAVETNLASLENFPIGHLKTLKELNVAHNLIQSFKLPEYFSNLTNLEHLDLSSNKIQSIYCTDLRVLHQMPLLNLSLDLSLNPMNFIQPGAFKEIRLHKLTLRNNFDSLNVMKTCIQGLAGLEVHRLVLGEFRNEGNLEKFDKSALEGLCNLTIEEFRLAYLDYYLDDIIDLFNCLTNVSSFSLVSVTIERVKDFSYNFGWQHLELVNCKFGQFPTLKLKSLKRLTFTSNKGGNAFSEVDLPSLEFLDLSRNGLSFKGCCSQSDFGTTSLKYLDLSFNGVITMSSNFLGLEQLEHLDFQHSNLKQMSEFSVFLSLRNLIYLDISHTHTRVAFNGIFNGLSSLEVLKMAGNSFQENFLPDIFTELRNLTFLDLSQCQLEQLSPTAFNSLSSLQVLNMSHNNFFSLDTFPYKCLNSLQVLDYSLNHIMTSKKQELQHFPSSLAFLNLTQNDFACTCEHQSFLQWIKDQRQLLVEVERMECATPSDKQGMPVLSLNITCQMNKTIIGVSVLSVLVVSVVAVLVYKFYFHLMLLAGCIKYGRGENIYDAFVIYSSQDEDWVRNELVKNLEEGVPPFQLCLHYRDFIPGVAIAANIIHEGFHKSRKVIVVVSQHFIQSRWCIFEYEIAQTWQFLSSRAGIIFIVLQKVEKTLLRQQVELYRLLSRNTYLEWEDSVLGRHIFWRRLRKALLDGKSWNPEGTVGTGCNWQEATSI
Chain of TLR2/6 (O60603 21-784): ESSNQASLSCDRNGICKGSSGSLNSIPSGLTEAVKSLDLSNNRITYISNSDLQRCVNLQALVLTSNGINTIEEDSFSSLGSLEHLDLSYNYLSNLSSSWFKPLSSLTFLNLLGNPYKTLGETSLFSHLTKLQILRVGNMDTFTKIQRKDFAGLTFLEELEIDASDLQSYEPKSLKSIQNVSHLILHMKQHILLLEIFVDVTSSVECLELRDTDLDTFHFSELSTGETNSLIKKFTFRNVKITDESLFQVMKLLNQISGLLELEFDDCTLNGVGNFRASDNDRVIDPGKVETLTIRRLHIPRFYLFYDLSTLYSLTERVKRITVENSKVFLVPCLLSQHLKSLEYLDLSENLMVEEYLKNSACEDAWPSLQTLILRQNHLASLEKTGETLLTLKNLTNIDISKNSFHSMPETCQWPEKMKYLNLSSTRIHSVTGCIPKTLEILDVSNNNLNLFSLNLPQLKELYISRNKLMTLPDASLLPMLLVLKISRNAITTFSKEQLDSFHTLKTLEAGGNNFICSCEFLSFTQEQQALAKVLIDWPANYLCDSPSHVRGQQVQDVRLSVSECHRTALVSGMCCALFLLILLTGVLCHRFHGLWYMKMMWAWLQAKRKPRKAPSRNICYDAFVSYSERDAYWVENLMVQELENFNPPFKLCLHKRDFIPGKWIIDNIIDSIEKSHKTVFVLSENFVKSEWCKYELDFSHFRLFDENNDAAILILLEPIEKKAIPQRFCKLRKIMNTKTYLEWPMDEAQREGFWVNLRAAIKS
Chain of TLR2/6 (Q9Y2C9 32-796): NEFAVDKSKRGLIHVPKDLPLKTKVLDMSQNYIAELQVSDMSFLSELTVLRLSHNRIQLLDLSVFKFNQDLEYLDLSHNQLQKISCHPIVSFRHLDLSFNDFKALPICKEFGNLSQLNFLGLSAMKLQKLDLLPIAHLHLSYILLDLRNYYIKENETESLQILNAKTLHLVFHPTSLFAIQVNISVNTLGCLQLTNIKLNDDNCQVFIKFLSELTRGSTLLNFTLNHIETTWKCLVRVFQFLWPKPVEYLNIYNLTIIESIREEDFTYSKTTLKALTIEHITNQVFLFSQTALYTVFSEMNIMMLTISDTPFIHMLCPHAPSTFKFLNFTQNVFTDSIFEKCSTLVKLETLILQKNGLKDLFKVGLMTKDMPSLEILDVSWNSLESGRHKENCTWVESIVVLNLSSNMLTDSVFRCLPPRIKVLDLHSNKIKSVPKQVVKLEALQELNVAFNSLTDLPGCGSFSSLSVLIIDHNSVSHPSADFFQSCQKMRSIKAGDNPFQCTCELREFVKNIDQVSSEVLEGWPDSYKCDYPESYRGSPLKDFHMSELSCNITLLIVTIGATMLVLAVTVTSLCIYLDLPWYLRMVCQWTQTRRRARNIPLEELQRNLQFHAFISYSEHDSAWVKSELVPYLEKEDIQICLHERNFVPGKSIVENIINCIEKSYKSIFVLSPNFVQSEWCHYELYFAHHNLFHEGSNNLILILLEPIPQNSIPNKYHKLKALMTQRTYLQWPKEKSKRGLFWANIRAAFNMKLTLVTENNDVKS

Substance	HEK-TLR2 luciferase activity (TLR2/6)	HEK-TLR4 luciferase activity (TLR4/MD2/CD14)
FSL-1	2.195 fold vs non-stimulated cells	1.123 fold vs non-stimulated cells
Pam3CSK4	4.079 fold vs non-stimulated cells	1.112 fold vs non-stimulated cells
